Laboratory results from article PMC10337138 (Acta Neuropathologica Communications, 2023).

How the values were obtained:
Conditions in all cases: 1 mM ATP; inhibitor
RPS6KA4/MSK2 = RPS6KA4/MSK2 (Homo sapiens, UniProt O75676)
Protocol: (§1) Kinase selectivity panel Kinome profiling was conducted by AssayQuant Technologies (Marlboro, MA) using Sox chromophore technology and Sox-based peptide substrates developed for human kinases in a 384-well format. Compounds were tested at 1 µM in the presence of 1 mM ATP.

FGR = FGR (Homo sapiens, UniProt P09769)
Protocol: as §1

RPS6KA3/RSK2 = RPS6KA3/RSK2 (Homo sapiens, UniProt P51812)
Protocol: as §1

PIM2 = PIM2 (Homo sapiens, UniProt Q9P1W9)
Protocol: as §1

EGFR = EGFR (Homo sapiens, UniProt P00533)
Protocol: as §1

DAPK1 = DAPK1 (Homo sapiens, UniProt P53355)
Chain of DAPK1 (P53355 whole entry): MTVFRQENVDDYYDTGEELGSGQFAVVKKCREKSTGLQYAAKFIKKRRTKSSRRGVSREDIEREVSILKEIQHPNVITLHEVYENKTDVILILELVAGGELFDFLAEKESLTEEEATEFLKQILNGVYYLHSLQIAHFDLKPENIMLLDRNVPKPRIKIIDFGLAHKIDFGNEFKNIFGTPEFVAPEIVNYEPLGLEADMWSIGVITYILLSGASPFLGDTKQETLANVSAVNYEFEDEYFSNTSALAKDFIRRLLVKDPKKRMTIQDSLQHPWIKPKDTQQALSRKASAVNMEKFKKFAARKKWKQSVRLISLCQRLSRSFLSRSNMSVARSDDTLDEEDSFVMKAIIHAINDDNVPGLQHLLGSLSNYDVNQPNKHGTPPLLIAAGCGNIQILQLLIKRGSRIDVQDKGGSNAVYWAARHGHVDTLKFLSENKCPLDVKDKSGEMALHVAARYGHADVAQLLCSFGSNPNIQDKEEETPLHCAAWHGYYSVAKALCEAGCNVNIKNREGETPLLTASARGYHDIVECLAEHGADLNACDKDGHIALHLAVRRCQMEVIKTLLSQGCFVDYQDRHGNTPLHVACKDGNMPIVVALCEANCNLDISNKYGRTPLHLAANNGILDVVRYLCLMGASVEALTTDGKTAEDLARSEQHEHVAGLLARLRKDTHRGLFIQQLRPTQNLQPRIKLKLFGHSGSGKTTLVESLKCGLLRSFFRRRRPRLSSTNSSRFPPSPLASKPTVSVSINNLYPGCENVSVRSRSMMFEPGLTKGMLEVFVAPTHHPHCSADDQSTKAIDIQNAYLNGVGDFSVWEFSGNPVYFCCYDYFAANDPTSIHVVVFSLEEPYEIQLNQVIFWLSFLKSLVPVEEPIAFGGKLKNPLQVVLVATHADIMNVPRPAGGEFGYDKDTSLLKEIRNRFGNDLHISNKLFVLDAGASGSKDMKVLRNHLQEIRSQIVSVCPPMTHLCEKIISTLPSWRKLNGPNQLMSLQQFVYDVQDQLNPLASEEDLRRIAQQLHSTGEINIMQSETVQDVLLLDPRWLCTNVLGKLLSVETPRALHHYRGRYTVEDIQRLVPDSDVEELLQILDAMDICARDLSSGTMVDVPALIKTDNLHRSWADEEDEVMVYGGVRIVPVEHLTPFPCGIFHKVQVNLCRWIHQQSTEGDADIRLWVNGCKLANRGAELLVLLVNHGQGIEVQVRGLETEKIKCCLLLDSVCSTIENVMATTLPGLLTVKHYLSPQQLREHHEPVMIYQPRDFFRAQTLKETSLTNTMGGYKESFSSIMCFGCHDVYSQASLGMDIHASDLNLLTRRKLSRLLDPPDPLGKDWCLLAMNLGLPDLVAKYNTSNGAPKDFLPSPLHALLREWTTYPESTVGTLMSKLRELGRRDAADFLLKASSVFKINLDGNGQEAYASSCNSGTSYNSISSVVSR
Protocol: as §1

GRK4 = GRK4 (Homo sapiens, UniProt P32298)
Protocol: as §1

DYRK3 = DYRK3 (Homo sapiens, UniProt O43781)
Protocol: as §1

GRK1 = GRK1 (Homo sapiens, UniProt Q15835)
Protocol: as §1

PHKG2 = PHKG2 (Homo sapiens, UniProt P15735)
Protocol: as §1

CSNK1AL/CK1A2 = biological target: T1, CSNK1AL/CK1A2 (Homo sapiens, UniProt Q8N752)
T1 construct: gene CSNK1A1L
Protocol: as §1

NEK9 = NEK9 (Homo sapiens, UniProt Q8TD19)
Protocol: as §1

KSR2 = KSR2 (Homo sapiens, UniProt Q6VAB6)
Protocol: as §1

STK26/MST4 = STK26/MST4 (Homo sapiens, UniProt Q9P289)
Protocol: as §1

PRKCD/CPKCD = PRKCD/CPKCD (Homo sapiens, UniProt Q05655)
Protocol: as §1

GRK5 = GRK5 (Homo sapiens, UniProt P34947)
Protocol: as §1

CDK6/D1 = CDK6/D1 (Homo sapiens, UniProt Q00534)
Protocol: as §1

LATS2 = LATS2 (Homo sapiens, UniProt Q9NRM7)
Protocol: as §1

DYRK1A = DYRK1A (Homo sapiens, UniProt Q13627)
Protocol: as §1

SGK2 = SGK2 (Homo sapiens, UniProt Q9HBY8)
Protocol: as §1

PDHK4 = biological target: T2, PDHK4 (Homo sapiens, UniProt Q16654)
T2 construct: gene PDK4
T2 sequence (Q16654 whole entry): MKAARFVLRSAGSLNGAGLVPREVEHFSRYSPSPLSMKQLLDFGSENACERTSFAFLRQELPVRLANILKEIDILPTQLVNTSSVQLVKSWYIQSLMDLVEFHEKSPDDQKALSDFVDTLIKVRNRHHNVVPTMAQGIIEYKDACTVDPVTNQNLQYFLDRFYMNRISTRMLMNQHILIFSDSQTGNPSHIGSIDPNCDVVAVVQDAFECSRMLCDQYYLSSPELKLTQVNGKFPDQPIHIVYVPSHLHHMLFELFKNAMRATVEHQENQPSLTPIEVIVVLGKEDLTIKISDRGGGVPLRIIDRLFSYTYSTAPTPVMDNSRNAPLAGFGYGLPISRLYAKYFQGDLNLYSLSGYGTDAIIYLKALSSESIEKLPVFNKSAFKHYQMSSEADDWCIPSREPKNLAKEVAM
Protocol: as §1

EPHA7 = EPHA7 (Homo sapiens, UniProt Q15375)
Chain of EPHA7 (Q15375 whole entry): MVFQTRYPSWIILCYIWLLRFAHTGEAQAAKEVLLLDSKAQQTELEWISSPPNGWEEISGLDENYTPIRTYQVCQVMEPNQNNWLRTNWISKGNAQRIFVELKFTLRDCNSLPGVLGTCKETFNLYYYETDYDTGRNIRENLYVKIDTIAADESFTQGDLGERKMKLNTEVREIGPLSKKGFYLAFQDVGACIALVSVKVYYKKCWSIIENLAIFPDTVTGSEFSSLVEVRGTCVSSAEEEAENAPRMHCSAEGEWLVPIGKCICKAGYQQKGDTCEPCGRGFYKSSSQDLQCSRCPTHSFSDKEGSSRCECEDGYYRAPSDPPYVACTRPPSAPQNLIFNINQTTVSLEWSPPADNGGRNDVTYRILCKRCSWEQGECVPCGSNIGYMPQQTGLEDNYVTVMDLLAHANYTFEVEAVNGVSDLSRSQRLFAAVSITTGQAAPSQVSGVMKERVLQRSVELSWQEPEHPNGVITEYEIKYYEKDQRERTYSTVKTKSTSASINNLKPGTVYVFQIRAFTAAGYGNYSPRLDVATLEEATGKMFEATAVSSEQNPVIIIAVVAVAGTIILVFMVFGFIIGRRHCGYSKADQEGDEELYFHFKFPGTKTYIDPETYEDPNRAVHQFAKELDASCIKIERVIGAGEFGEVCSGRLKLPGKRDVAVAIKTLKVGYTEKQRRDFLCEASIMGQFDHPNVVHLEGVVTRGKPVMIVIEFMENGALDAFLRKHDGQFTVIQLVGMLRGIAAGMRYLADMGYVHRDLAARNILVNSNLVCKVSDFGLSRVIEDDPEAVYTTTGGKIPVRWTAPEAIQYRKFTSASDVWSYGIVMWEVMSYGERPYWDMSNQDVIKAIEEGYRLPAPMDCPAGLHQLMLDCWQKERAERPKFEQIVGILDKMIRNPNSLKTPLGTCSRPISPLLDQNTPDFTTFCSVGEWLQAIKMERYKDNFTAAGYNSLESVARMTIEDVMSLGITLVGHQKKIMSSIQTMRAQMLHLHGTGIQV
Protocol: as §1

DAPK3 = DAPK3 (Homo sapiens, UniProt O43293)
Protocol: as §1

NUAK2 = NUAK2 (Homo sapiens, UniProt Q9H093)
Protocol: as §1

LYNA = biological target: T3, LYNA (Homo sapiens, UniProt P07948)
T3 construct: gene LYN
Protocol: as §1

CSNK1D/CK1D = CSNK1D/CK1D (Homo sapiens, UniProt P48730)
Protocol: as §1

NEK5 = NEK5 (Homo sapiens, UniProt Q6P3R8)
Chain of NEK5 (Q6P3R8 whole entry): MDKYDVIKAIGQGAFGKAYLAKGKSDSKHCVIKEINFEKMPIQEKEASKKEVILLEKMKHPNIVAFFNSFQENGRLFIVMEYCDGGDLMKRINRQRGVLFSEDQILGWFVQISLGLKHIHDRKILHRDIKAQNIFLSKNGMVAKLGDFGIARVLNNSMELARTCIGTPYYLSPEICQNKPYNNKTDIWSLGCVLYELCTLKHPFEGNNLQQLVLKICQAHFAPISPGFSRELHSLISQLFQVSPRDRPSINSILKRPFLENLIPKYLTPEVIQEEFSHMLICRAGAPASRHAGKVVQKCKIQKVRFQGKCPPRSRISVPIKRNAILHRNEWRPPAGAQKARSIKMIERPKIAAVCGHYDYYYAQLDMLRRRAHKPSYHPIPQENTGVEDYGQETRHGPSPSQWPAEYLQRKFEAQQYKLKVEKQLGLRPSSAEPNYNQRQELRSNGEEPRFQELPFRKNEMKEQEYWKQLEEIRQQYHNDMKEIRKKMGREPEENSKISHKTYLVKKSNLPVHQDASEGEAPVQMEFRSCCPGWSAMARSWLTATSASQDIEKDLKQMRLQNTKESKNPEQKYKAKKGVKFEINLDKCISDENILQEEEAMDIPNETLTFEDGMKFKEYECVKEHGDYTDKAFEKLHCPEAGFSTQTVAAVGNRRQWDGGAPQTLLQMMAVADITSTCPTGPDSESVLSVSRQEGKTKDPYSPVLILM
Protocol: as §1

ROCK1 = ROCK1 (Homo sapiens, UniProt Q13464)
Protocol: as §1

PRKCI/PKCI = PRKCI/PKCI (Homo sapiens, UniProt P41743)
Protocol: as §1

MAPK15/ERK7 = MAPK15/ERK7 (Homo sapiens, UniProt Q8TD08)
Protocol: as §1

GRK6 = GRK6 (Homo sapiens, UniProt P43250)
Chain of GRK6 (P43250 whole entry): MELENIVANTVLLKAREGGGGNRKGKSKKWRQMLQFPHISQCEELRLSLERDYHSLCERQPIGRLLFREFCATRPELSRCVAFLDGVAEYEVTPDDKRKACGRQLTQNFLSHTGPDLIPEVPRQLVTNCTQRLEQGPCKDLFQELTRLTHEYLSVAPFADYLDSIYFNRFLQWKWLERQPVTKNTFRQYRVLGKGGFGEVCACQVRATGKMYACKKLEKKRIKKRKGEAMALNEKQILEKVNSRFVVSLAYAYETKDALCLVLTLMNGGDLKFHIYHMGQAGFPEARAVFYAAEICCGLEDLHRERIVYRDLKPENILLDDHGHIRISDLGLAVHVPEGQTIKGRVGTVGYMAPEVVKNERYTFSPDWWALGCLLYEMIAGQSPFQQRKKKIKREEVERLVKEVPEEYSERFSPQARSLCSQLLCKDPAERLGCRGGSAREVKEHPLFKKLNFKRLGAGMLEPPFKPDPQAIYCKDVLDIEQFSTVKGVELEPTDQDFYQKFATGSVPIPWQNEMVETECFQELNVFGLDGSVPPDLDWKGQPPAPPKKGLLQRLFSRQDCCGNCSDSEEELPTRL
Protocol: as §1

ABL2 = ABL2 (Homo sapiens, UniProt P42684)
Protocol: as §1

FES = FES (Homo sapiens, UniProt P07332)
Protocol: as §1

CDK5/P35 = CDK5/P35 (Homo sapiens, UniProt Q00535)
Protocol: as §1

NEK6 = NEK6 (Homo sapiens, UniProt Q9HC98)
Protocol: as §1

STK24/MST3 = STK24/MST3 (Homo sapiens, UniProt Q9Y6E0)
Chain of STK24/MST3 (Q9Y6E0 whole entry): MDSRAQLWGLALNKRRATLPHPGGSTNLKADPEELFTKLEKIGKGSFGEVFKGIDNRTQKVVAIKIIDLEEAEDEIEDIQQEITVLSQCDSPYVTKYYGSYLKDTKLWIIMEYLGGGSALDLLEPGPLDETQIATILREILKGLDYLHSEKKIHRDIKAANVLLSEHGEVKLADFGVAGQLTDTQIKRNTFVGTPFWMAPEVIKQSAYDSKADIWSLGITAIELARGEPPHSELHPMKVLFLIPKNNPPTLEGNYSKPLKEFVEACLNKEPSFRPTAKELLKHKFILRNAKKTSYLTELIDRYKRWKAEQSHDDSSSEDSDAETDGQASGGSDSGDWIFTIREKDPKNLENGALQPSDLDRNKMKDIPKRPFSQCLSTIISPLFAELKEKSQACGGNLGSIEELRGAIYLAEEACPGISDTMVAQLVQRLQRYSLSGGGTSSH
Protocol: as §1

DYRK4 = DYRK4 (Homo sapiens, UniProt Q9NR20)
Protocol: as §1

CDK9/K = CDK9/K (Homo sapiens, UniProt P50750)
Protocol: as §1

CSNK1G2/CK1G2 = CSNK1G2/CK1G2 (Homo sapiens, UniProt P78368)
Chain of CSNK1G2/CK1G2 (P78368 whole entry): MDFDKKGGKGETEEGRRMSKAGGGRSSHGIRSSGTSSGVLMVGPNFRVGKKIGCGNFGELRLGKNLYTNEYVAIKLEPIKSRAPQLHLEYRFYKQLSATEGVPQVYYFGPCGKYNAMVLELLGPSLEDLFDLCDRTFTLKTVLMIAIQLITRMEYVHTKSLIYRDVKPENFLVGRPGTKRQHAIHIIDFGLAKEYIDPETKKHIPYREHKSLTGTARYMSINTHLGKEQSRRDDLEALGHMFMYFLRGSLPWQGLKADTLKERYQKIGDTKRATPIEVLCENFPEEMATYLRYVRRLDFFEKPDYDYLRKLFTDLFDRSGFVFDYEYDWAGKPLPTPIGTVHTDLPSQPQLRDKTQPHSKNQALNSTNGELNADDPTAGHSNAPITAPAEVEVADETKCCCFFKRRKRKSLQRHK
Protocol: as §1

Compound: C=CC(=O)N1CCC[C@@H](n2nc(-c3ccc(Oc4ccccc4)cc3)c3c(N)ncnc32)C1 [Ibrutinib]
- 1 µM GBD00276 (ibrutinib), % inhibition (RPS6KA4/MSK2): 6.848%
- 1 µM GBD00276 (ibrutinib), % inhibition (FGR): 56.77%
- 1 µM GBD00276 (ibrutinib), % inhibition (RPS6KA3/RSK2): 28.78%
- 1 µM GBD00276 (ibrutinib), % inhibition (PIM2): -3.683%
- 1 µM GBD00276 (ibrutinib), % inhibition (EGFR): 96.63%
- 1 µM GBD00276 (ibrutinib), % inhibition (DAPK1): 0.3006%
- 1 µM GBD00276 (ibrutinib), % inhibition (GRK4): 18.83%
- 1 µM GBD00276 (ibrutinib), % inhibition (DYRK3): 15.88%
- 1 µM GBD00276 (ibrutinib), % inhibition (GRK1): 10.14%
- 1 µM GBD00276 (ibrutinib), % inhibition (PHKG2): 1.522%
- 1 µM GBD00276 (ibrutinib), % inhibition (CSNK1AL/CK1A2): 14.53%
- 1 µM GBD00276 (ibrutinib), % inhibition (NEK9): 2.083%
- 1 µM GBD00276 (ibrutinib), % inhibition (KSR2): 3.265%
- 1 µM GBD00276 (ibrutinib), % inhibition (STK26/MST4): -9.161%
- 1 µM GBD00276 (ibrutinib), % inhibition (PRKCD/CPKCD): -43.15%
- 1 µM GBD00276 (ibrutinib), % inhibition (GRK5): -10.93%
- 1 µM GBD00276 (ibrutinib), % inhibition (CDK6/D1): 3.427%
- 1 µM GBD00276 (ibrutinib), % inhibition (LATS2): 10.92%
- 1 µM GBD00276 (ibrutinib), % inhibition (DYRK1A): 15.66%
- 1 µM GBD00276 (ibrutinib), % inhibition (SGK2): -4.773%
- 1 µM GBD00276 (ibrutinib), % inhibition (PDHK4): -54.44%
- 1 µM GBD00276 (ibrutinib), % inhibition (EPHA7): -0.6285%
- 1 µM GBD00276 (ibrutinib), % inhibition (DAPK3): -3.598%
- 1 µM GBD00276 (ibrutinib), % inhibition (NUAK2): 3.408%
- 1 µM GBD00276 (ibrutinib), % inhibition (LYNA): 35.64%
- 1 µM GBD00276 (ibrutinib), % inhibition (CSNK1D/CK1D): 12.82%
- 1 µM GBD00276 (ibrutinib), % inhibition (NEK5): 12.71%
- 1 µM GBD00276 (ibrutinib), % inhibition (ROCK1): 3.894%
- 1 µM GBD00276 (ibrutinib), % inhibition (PRKCI/PKCI): 5.685%
- 1 µM GBD00276 (ibrutinib), % inhibition (MAPK15/ERK7): -6.367%
- 1 µM GBD00276 (ibrutinib), % inhibition (GRK6): -23.1%
- 1 µM GBD00276 (ibrutinib), % inhibition (ABL2): -32.13%
- 1 µM GBD00276 (ibrutinib), % inhibition (FES): 7.857%
- 1 µM GBD00276 (ibrutinib), % inhibition (CDK5/P35): 2.273%
- 1 µM GBD00276 (ibrutinib), % inhibition (NEK6): -7.047%
- 1 µM GBD00276 (ibrutinib), % inhibition (STK24/MST3): -20.41%
- 1 µM GBD00276 (ibrutinib), % inhibition (DYRK4): 6.524%
- 1 µM GBD00276 (ibrutinib), % inhibition (CDK9/K): -8.235%
- 1 µM GBD00276 (ibrutinib), % inhibition (CSNK1G2/CK1G2): 17.59%
